Measured values as given in patent US20120220535A1, “CYCLIC-GLUR6 ANALOGS, METHODS OF TREATMENT AND USE” (priority 2009, published 2012).
Entries after “also recorded” stand apart in the source; their conditions may differ.

Key:
[1] = tested on: acute slices of rat retinal and brain tissue; test: Multi-electrode array electrophysiological screen for neuroprotection against kainate- or NMDA-induced death; type: cell-based; settings: 30 uM; pretreatment, or cotreatment with an NMDA receptor agonist; slices perfused about 30 min with NMDA or kainate agonists
Source text: One aspect of the present invention usefully employs electrophysiological screening of Structure 1. Particular attention is drawn to an electrophysiological assay that rapidly screens for compounds which are inhibitors that target neuron-specific PDZ domains. Recordings of cellular activity were made from acute slices of rat retinal and brain tissue to examine the effects of Structure 1 on synaptic Kainate/AMPA, NMDARs and to test for protection against excitotoxic insults. Kainate/AMPA and NMDAR components were distinguished pharmacologically. Noted are the selective AMPA-antagonist NBQX and the competitive NMDA-antagonist CPP. A multi-electrode array was used that enabled examination of activity from sixty neurons simultaneously. This array addressed whether a test compound provided neuroprotection against kainate or N-methyl-D-aspartic acid (NMDA)-induced death. Briefly, slices were perfused for prolonged periods (about 30 min) with NMDA or kainate agonists until activity in half of the neurons is lost and responses cannot be rescued by washing out the NMDA or kainate (assumed to be resulting from neuronal death).

ischemic episode = test: Therapeutic protocol in stroke (Example 2); type: in vivo, human; settings: 50 mg/Kg i.v. within 2 hours of onset; outcome within 48 hours; person
Procedure: A person presents with an ischemic episode resulting sudden numbness the face, and left arm, confusion, and trouble speaking. […] Doses of from about 1 to about 100 mg/Kg are noted.

hippocampal neurons = test: Excitotoxic insult in hippocampal neurons (loss of functional activity); type: cell-based; settings: co-application with excitotoxic insult
Source text: This loss was prevented by the co-application of the compound of Structure 1. Results were confirmatory of the retinal data and extends it into tissues that are more strongly associated with CNS disorders such as Stroke and neurodegenerative diseases. Noted is therapeutic treatment for autism disorders and cognitive decline symptomatology conditions.

[2] = Intrathecal injection in rats, distribution in spinal cord and brain; type: in vivo
Procedure: Intrathecal injection of Structure 1 compound in rats was tested. Rats were prepped for intrathecal injection containing 16 nmol of Structure 1 compound at the level of CV2. 24 hrs following the injection the rats were perfused with 4% PFA and frozen cross-sections of the cord were mounted on glass slides and photographed.

[3] = Uptake in the retina after intravitreal injection of fluorescently tagged compound; type: in vivo
Source text: Uptake in the retina was observed as follows. […] In numerous populations of retinal neurons located in both the ganglion cell (GCL) and inner nuclear layers.

[4] = rats, 16 nmol intrathecal at CV2, 24 hrs after injection

CONH2-(Arg)7-Cys-Cys-Lys-Asn-Tyr-Lys-c[-Lys-Thr-Glu(βAla)Val [Structure 1]
prevention of neuronal death / cell death [1]: provided efficacy and potency in preventing neuronal death; also recorded: prevented cell death | patient outcome after ischemic episode (ischemic episode): recovers without significant brain damage | permanent loss of functional activity after excitotoxic insult (hippocampal neurons): prevented | accumulation in brain regions after cervical intrathecal injection [2, 4]: accumulate in cells located in the cortex, hippocampus, brainstem and striatum | crossing of pia mater/brain barrier and accumulation in spinal cord neurons [2, 4]: crosses the pia mater/brain barrier and selectively accumulates in neurons located within the gray matter of the cord | crossing of pia mater/brain barrier ([2]; tagged with a fluorescent marker, localizes in neurons within retina, spinal cord and brain): readily cross the pia mater/brain barrier | uptake pattern in retina ([3]; 1.5-6 nmol, 6 hrs following intravitreal injection): ~50% | accumulation within ganglion cell axons ([3]; intravitreal injection, labeling at the optic nerve head): selectively accumulated within ganglion cell axons | crossing of vitreal/retina barrier ([3]; tagged with a fluorescent marker, administered intravitrealy): crossed the vitreal/retina barrier
